Measured values reported in patent US12291529B2, “Heterocyclic GLP-1 agonists” (Gasherbrum Bio, Inc., priority 2023, dated 2025).
In brackets after ≈: the same amount, converted by molar mass.

Key:
FaSSIF solubility = assay type: physicochemical; settings: FaSSIF buffer, 25 °C, fassif, thermodynamic from solid
Experimental: Stock solution of test article and control compound (chlorpromazine, astemizole, and phenytoin) were prepared in DMSO at 10 mM. 50 μL each of stock solutions were dried down, followed by reconstitution to 1 mM with FaSSIF buffer in the well. The incubation plate was shaked at 25° C., 1,100 rpm for 4 hours. And then, the samples were filtered by using the vacuum manifold. 10 μL aliquots from each well was transferred to a new 96-well plate and adjust the volume to 80 μL with blank buffer. Using a mixture of H2O and acetonitrile containing internal standard (1:1) to dilute the sample 100-fold, 500-fold and 2,500-fold. The samples are evaluated by LC/MS/MS analysis. All compounds were tested in singlet.

GLP-1 Receptor = GLP-1 Receptor (Homo sapiens, UniProt P43220); test: GLP-1R agonist cAMP stimulation assay (HEK293/GLP1R/CRE-LUC cells, Cisbio cAMP dynamic 2 kit); assay type: cell-based
Method in brief: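 cAMP was measured by HTRF (d2/cryptate, 1 h RT, 665 and 615 nm). Beforehand, compounds in half-log series were incubated 30 min at 37 °C with GLP-1R/CRE-Luc HEK293 cells (1000 per well) in IBMX (0.5 mM)-containing DPBS/BSA. Activity scaled between vehicle and maximal control.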

[1] = Caco-2 permeability / efflux study; assay type: in vitro ADME; settings: human; for Papp at 2 h, 10 μM: Caco-2, pH 7.4, 10 μM, 37° C., pH 7.4, 0.5% BSA, read-out: Caco-2 Perm; for efflux ratio at 2 h, 10 μM: Caco-2, pH 7.4, Caco-2 efflux ratio
Experimental: Incubations with Caco-2 cell monolayers were performed in duplicate in a 96-well Transwell plate. Transport buffer solution (HBSS, 10 mM HEPES, pH 7.4, with 0.5% BSA) containing test article (10 μM), and either the control compounds metoprolol (10 μM), cimetidine (10 μM) and erythromycin (10 μM), was added to appropriate donor wells of the apical or basolateral plate. The transport buffer with DMSO was added to appropriate wells of receiver wells. Following incubation at 37° C. for 2 hours, the cell plates were removed and 50 μL samples from both apical and basolateral sides were transferred into new 96-well plates. Subsequently, 200 μL of acetonitrile containing internal standard was added to all samples to precipitate protein prior to analysis by UPLC-MS/MS. Lucifer yellow was used as a marker to confirm the integrity of the cell monolayers after 2 hours incubation.

[2] = Rat IV/PO PK study, Method A; assay type: in vivo, male Sprague Dawley (SD) rats
Experimental: Pharmacokinetics (PK) study was conducted on male Sprague Dawley (SD) rats by two delivery routes intravenous (IV) and/or oral gavage (PO). Rats in IV route (n=3) were free access to food and water. Rats in PO route (n=3) were fasted overnight and fed at 4 hrs post dosing. Test article was formulated in solution (10% solutol HS 15 in saline) for IV route and solution or suspension (10% solutol HS 15 in saline/water) for PO route, respectively. On the day of experiment, test article was administered via vein (e.g. foot dorsal vein) injection (commonly at 1 mg/kg and 5 mL/kg) for IV route or via oral gavage (commonly at 2 or 5 mg/kg and 5 mL/kg) for PO route, respectively. Blood samples were collected via serial bleeding at ˜8 time points from 0.083 to 24 hrs post dose. Approximate 150 μL of blood/time point was collected into K2EDTA tube via tail vein or jugular vein. Blood samples were put on wet ice and centrifuged to obtain plasma samples and plasma samples were submitted to LC-MS/MS for sample analysis. Pharmacokinetics parameters, including elimination half life (t1/2) (IV), area under the curve (AUC) and oral bioavailability (F %), etc. were calculated by non-compartmental model using WinNonlin.

[3] = Table 3, HEK293/GLP1R/CRE-LUC cells, 30 min

GLP-1 Receptor, sequence (P43220 24-463, species assumed): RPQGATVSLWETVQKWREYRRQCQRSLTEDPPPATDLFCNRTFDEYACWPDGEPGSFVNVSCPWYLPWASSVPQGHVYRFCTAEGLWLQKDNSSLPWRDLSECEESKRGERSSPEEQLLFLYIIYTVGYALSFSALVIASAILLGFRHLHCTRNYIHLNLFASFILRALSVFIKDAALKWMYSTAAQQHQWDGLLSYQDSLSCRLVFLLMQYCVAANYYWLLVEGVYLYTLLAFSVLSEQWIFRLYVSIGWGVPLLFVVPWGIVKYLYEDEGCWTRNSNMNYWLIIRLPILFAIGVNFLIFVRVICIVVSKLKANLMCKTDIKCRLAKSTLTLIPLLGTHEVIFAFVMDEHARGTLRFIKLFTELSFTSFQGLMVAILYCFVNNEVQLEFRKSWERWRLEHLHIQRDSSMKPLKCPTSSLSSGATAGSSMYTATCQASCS

solubility at 4 h (FaSSIF solubility)	EC50 (GLP-1 Receptor; Table 4)	Papp at 2 h, 10 μM [1]	efflux ratio at 2 h, 10 μM [1]	EC50 (GLP-1 Receptor; [3])	AUC (ng · h/mL)_free form/dose ([2]; PO, 5 mpk, free form)	half-life ([2]; male, Sprague Dawley, plasma, 1 mg/kg, elimination half life (IV), Method A)	bioavailability ([2]; male, Sprague Dawley, plasma, PO vs IV, Method A, read-out: Bioavailablility (% F))	Structure (SMILES)
4 µM (≈ 3.5 µg/mL)	0.022 nM	0.126 ×10⁻⁶ cm/s	51.7	–	–	–	–	CCS(=O)(=O)c1ccc(-n2ccn(-c3c4c(nn3-c3cc(C)c(F)c(C)c3)CCN(C(=O)c3cc5cc(C6CCOCC6)ccc5n3[C@@]3(c5noc(=O)[nH]5)C[C@@H]3C)[C@H]4C)c2=O)cc1 [Compound C-1, reference compound]
9.3 µM (≈ 8.25 µg/mL)	0.043 nM	< 0.05 ×10⁻⁶ cm/s	> 62.6	–	–	–	–	Cc1cc(-n2nc3c(c2-n2ccn(-c4ccc(S(=O)(=O)C5CC5)cc4)c2=O)[C@H](C)N(C(=O)c2cc4cc(C5CCOCC5)ccc4n2[C@@]2(c4noc(=O)[nH]4)C[C@@H]2C)CC3)cc(C)c1F [Compound C-2, reference compound]
–	0.011 nM	0.19 ×10⁻⁶ cm/s	45	0.001 nM	–	–	–	Cc1cc(-n2nc3c(c2-n2ccn(-c4ccc(S(=N)(=O)C5CCC5)cc4F)c2=O)[C@H](C)N(C(=O)c2cc4cc([C@H]5CCOC(C)(C)C5)ccc4n2[C@@]2(c4noc(=O)[nH]4)C[C@@H]2C)CC3)cc(C)c1F (single isomer, unassigned) [Compound 183]
7.3 µM (≈ 6.38 µg/mL)	0.015 nM	0.1 ×10⁻⁶ cm/s	90.8	0.019 nM	–	–	–	CN=S(C)(=O)c1ccc(-n2ccn(-c3c4c(nn3-c3cc(C)c(F)c(C)c3)CCN(C(=O)c3cc5cc(C6CCOCC6)ccc5n3[C@@]3(c5noc(=O)[nH]5)C[C@@H]3C)[C@H]4C)c2=O)cc1 (single isomer, unassigned) [Compound 121]
2.56 µM (≈ 2.27 µg/mL)	0.017 nM	0.36 ×10⁻⁶ cm/s	24.1	0.017 nM	–	–	–	CCS(=O)(=NC)c1ccc(-n2ccn(-c3c4c(nn3-c3cc(C)c(F)c(C)c3)CCN(C(=O)c3cc5cc(C6CCOCC6)ccc5n3[C@@]3(c5noc(=O)[nH]5)C[C@@H]3C)[C@H]4C)c2=O)cc1 (single isomer, unassigned) [Compound 144]
9.9 µM (≈ 9.71 µg/mL)	0.033 nM	0.34 ×10⁻⁶ cm/s	11.4	0.033 nM	–	–	–	CN=S(=O)(c1ccc(-n2ccn(-c3c4c(nn3-c3cc(C)c(F)c(C)c3)CCN(C(=O)c3cc5cc([C@H]6CCOC(C)(C)C6)ccc5n3[C@@]3(c5noc(=O)[nH]5)C[C@@H]3C)[C@H]4C)c2=O)c(F)c1Cl)C1CC1 (single isomer, unassigned) [Compound 214]
6.45 µM (≈ 5.65 µg/mL)	–	0.05 ×10⁻⁶ cm/s	78.1	–	–	–	–	CNS(=O)(=O)c1ccc(-n2ccn(-c3c4c(nn3-c3cc(C)c(F)c(C)c3)CCN(C(=O)c3cc5cc(C6CCOCC6)ccc5n3[C@@]3(c5noc(=O)[nH]5)C[C@@H]3C)[C@H]4C)c2=O)cc1 [Compound C-3, reference compound]
–	0.072 nM	0.3 ×10⁻⁶ cm/s	36.8	0.072 nM	–	–	–	CCS(=O)(=NC)c1ccc(-n2ccn(-c3c4c(nn3-c3cc(C)c(F)c(C)c3)CCN(C(=O)c3cc5cc(C6CCOCC6)ccc5n3[C@@]3(c5noc(=O)[nH]5)C[C@@H]3C)[C@H]4C)c2=O)c(Cl)c1 (single isomer, unassigned) [Compound 151]
4.05 µM (≈ 3.72 µg/mL)	0.031 nM	0.34 ×10⁻⁶ cm/s	38.5	0.03 nM	–	–	–	CN=S(=O)(c1ccc(-n2ccn(-c3c4c(nn3-c3cc(C)c(F)c(C)c3)CCN(C(=O)c3cc5cc(C6CCOCC6)ccc5n3[C@@]3(c5noc(=O)[nH]5)C[C@@H]3C)[C@H]4C)c2=O)c(F)c1)C1CC1 (single isomer, unassigned) [Compound 221]
7.9 µM (≈ 7.49 µg/mL)	0.068 nM	0.32 ×10⁻⁶ cm/s	15.7	0.065 nM	–	–	–	CCS(=O)(=NC)c1ccc(-n2ccn(-c3c4c(nn3-c3cc(C)c(F)c(C)c3)CCN(C(=O)c3cc5cc([C@H]6CCOC(C)(C)C6)ccc5n3[C@@]3(c5noc(=O)[nH]5)C[C@@H]3C)[C@H]4C)c2=O)c(F)c1C (single isomer, unassigned) [Compound 216]
–	0.059 nM	0.09 ×10⁻⁶ cm/s	20.7	0.083 nM	–	–	–	CN=S(=O)(c1ccc(-n2ccn(-c3c4c(nn3-c3cc(C)c(F)c(C)c3)CCN(C(=O)c3cc5cc([C@H]6CCOC(C)(C)C6)ccc5n3[C@@]3(c5noc(=O)[nH]5)C[C@@H]3C)[C@H]4C)c2=O)cc1NC)C1CC1 (single isomer, unassigned) [Compound 218]
–	0.011 nM	0.21 ×10⁻⁶ cm/s	50	0.011 nM	–	–	–	Cc1cc(-n2nc3c(c2-n2ccn(-c4ccc(S(=N)(=O)C5CCC5)cc4F)c2=O)[C@H](C)N(C(=O)c2cc4cc(C5CCOCC5)ccc4n2[C@@]2(c4noc(=O)[nH]4)C[C@@H]2C)CC3)cc(C)c1F (single isomer, unassigned) [Compound 168]
–	0.014 nM	0.24 ×10⁻⁶ cm/s	38	0.018 nM	6,097/5 mpk ng · h/mL	99.6 min	30%	Cc1cc(-n2nc3c(c2-n2ccn(-c4ccc(S(=N)(=O)C5CC5)cc4F)c2=O)[C@H](C)N(C(=O)c2cc4cc([C@H]5CCOC(C)(C)C5)ccc4n2[C@@]2(c4noc(=O)[nH]4)C[C@@H]2C)CC3)cc(C)c1F (single isomer, unassigned) [Compound 181]
–	–	–	–	0.99 nM	–	–	–	Cc1nnc(C2(n3c(C(=O)N4CCc5nn(-c6cc(C)c(F)c(C)c6)c(-n6ccn(-c7ccc(S8(=O)=NCCC8)cc7)c6=O)c5[C@@H]4C)cc4cc(C5CCOCC5)ccc43)CC2)o1 (single isomer, unassigned) [Compound 155]
–	–	–	–	0.22 nM	–	–	–	Cc1cc(-n2nc3c(c2-n2ccn(-c4ccc(S(=O)(=NC5CC5)C5CC5)cc4F)c2=O)[C@H](C)N(C(=O)c2cc4cc([C@H]5CCOC(C)(C)C5)ccc4n2[C@@]2(c4noc(=O)[nH]4)C[C@@H]2C)CC3)cc(C)c1F (single isomer, unassigned) [Compound 209]
–	–	–	–	0.134 nM	–	–	–	CN=S(=O)(c1ccc(-n2ccn(-c3c4c(nn3-c3cc(C)c(F)c(C)c3)CCN(C(=O)c3cc5cc([C@H]6CCOC(C)(C)C6)ccc5n3[C@@]3(c5noc(=O)[nH]5)C[C@@H]3C)[C@H]4C)c2=O)c(F)c1C(C)C)C1CC1 (single isomer, unassigned) [Compound 220]
–	–	–	–	3.2 nM	–	–	–	CCS(=O)(=NC)c1ccc(-n2ccn(-c3c4c(nn3-c3cc(C)c(F)c(C)c3)CCN(C(=O)c3cc5cc(C6CCOCC6)ccc5n3C[C@@H]3CCO3)[C@H]4C)c2=O)cc1 (single isomer, unassigned) [Compound 162]
–	–	–	–	9.9 nM	–	–	–	CCS(=O)(=NC)c1ccc(-n2ccn(-c3c4c(nn3-c3cc(C)c(F)c(C)c3)CCN(C(=O)c3cc5cc(C6CCOCC6)ccc5n3C[C@H]3CCO3)[C@H]4C)c2=O)cc1 (single isomer, unassigned) [Compound 165]
–	–	–	–	0.23 nM	–	–	–	Cc1cc(-n2nc3c(c2-n2ccn(-c4ccc(S5(=O)=NCCC5)cc4)c2=O)[C@H](C)N(C(=O)c2cc4cc(C5CCOCC5)ccc4n2C2(c4nsc(=O)[nH]4)CC2)CC3)cc(C)c1F (single isomer, unassigned) [Compound 130]
–	–	–	–	0.98 nM	–	–	–	CCS(=N)(=O)c1ccc(-n2ccn(-c3c4c(nn3-c3cc(C)c(F)c(C)c3)CCN(C(=O)c3sc5cc(C6CCOCC6)ccc5c3C3(c5noc(=O)[nH]5)CC3)[C@H]4C)c2=O)cc1 (single isomer, unassigned) [Compound 132]
–	–	–	–	0.047 nM	–	–	–	Cc1cc(-n2ccn(-c3c4c(nn3-c3cc(C)c(F)c(C)c3)CCN(C(=O)c3cc5cc([C@H]6CCOC(C)(C)C6)ccc5n3[C@@]3(c5noc(=O)[nH]5)C[C@@H]3C)[C@H]4C)c2=O)c(F)cc1S(=N)(=O)C1CC1 (single isomer, unassigned) [Compound 189]
